Literature values in publication PMC4832855 (Cancer Science, 2016).

Columns and labels:
Conditions in all cases: cited from earlier work
[1] = test system: patients
[2] = test system: Btc
[3] = test system: Jak2
[4] = test system: IGF‐1R
[5] = test system: p381
[6] = test system: Met
[7] = test system: AurA
[8] = test system: Src
[9] = test system: Lck
[10] = test system: IR
[11] = test system: AurB

SMILES	Activity as monotherapy in early clinical trials [1]	IC50 [2] [µM]	IC50 [3] [µM]	IC50 [4] [nM]	IC50 [5] [µM]	IC50 [6] [µM]	IC50 [7] [µM]	IC50 [8] [µM]	IC50 [9] [µM]	IC50 [10] [nM]	Overall or progression‐free survival compared to placebo ([1]; monotherapy, phase III, metastatic adrenocortical carcinoma)	IC50 [11] [µM]
C[C@@]1(C(=O)Nc2ccc(F)nc2)CCCN1c1nc(Nc2cc(C3CC3)n[nH]2)c2cccn2n1 [BMS‐754807]	only modest activity	–	–	–	–	–	–	–	–	–	–	–
C[C@]1(O)C[C@@H](c2nc(-c3ccc4ccc(-c5ccccc5)nc4c3)c3c(N)nccn32)C1 [Linsitinib]	only modest activity	> 10	> 10	[…]	> 10	> 10	> 10	> 10	> 10	75	did not increase	> 10
